Data published in patent US9549941B2, “Compositions and methods for treating hepatitis C virus” (priority 2011, dated 2017).

How the values were obtained:
[1] = ELECTRON Grade 3/4 hematologic (laboratory) abnormalities; format: in vivo, human; details: Groups 1-6 (GT2/GT3 Tx-naive)
HCV GT2 or GT3 = experiment: ELECTRON Phase 2a clinical study, treatment-naive GT2/GT3 (Groups 1-6, 10); format: in vivo, human; details: for HCV RNA (log10 IU/mL), mean: GT2/GT3 Tx-naive, N=10; for HCV RNA below LOD, %: Genotype 2/3 Treatment Naive (Groups 1-6); for % < LOD / n/N < LOD: Groups 1-5, GT2/GT3 Tx-naive
Experimental: In comparison, only 60% of treatment-naïve GT2/GT3 HCV patients receiving GS-7977 monotherapy achieved SVR-12.
Group 1: GS-7977 (400 mg QD) with RBV (1000/1200 mg BID) for 12 weeks (no peginterferon) (GT2/GT3 treatment-naïve); and
Groups 2, 3, 4: GS-7977 (400 mg QD) with RBV (1000/1200 mg BID) for 12 weeks and PEG (180 μg weekly) weeks 1-4 only/PEG (180 μg weekly) weeks 1-8 only/PEG (180 μg weekly) weeks 1-12 (GT2/GT3 treatment-naïve).
In Part 2 of the ELECTRON trial, an additional 30 patients were enrolled in exploratory regimens of GS-7977 monotherapy and abbreviated durations of total therapy with the combination of GS-7977, RBV and PEG:
Group 5: GS-7977 (400 mg QD) monotherapy for 12 weeks (GT2/GT3 treatment-naïve);
Group 6: GS-7977 (400 mg QD) with PEG (180 μg weekly) and RBV (1000/1200 mg BID) for 8 weeks (GT2/GT3 treatment-naïve); and
Group 10: GS-7977 (400 mg QD) with RBV (1000/1200 mg BID) for 8 weeks (GT2/GT3 treatment-naïve); and […]

[2] = tested on: 1a-H77 sub-genomic replicon, NS5B S282T; experiment: microbe, parasite or virus in culture; format: cell-based, hepatitis C virus
Experimental: (Lam et al., J. Virology (2011) 85(23): 12334-12342; Lam et al., Antimicrob. Agents Chemother. (2012) 56(6): 3359-3368.) S282T mutations in NS5B were created by site-directed mutagenesis in 1a-H77, 1b con-1, and 2a JFH1 sub-genomic replicons. 1b con-1-based chimeric replicons containing 2b, 3a, 4a, 5a, or 6a NS5B were also engineered to harbor the S282T mutation. […] Relative percentages of mutant and WT were assessed by deep sequencing.

[3] = ELECTRON adverse events (Groups 1,7,8,9 N=70; Groups 2,3,4 N=30; Group 5 N=10; Group 6 N=10); format: in vivo, human; details: subjects with event

Question: Which results are given for CC(C)OC(=O)[C@H](C)N[P@](=O)(OC[C@H]1O[C@@H](n2ccc(=O)[nH]c2=O)[C@](C)(F)[C@@H]1O)Oc1ccccc1 [GS-7977, (S)-isopropyl 2-(((S)-(((2R,3R,4R,5R)-5-(2,4-dioxo-3,4-dihydropyrimidin-1(2H)-yl)-4-fluoro-3-hydroxy-4-methyltetrahydrofuran-2-yl)methoxy)(phenoxy)phosphoryl)amino)propanoate]?
Answer: Alanine aminotransferase Grade 3: n [1]: 0; Hemoglobin Grade 3: n [1]: 0; INR Grade 3: n [1]: 0; Lymphocytes Grade 3: n [1]: 0; Lymphocytes Grade 4: % [1]: 10%; Lymphocytes Grade 4: n [1]: 1; Neutropenia Grade 3: n [1]: 0; Neutropenia Grade 4: n [1]: 0; White blood cells Grade 3: n [1]: 0; HCV RNA (log10 IU/mL), mean (HCV GT2 or GT3; D1): 5.74 log10 IU/mL; HCV RNA (log10 IU/mL), mean (HCV GT2 or GT3; D1 (6 hr) after dosing): 5.63 log10 IU/mL; HCV RNA (log10 IU/mL), mean (HCV GT2 or GT3; D1 (12 hr) after dosing): 4.98 log10 IU/mL; HCV RNA (log10 IU/mL), mean (HCV GT2 or GT3; D2): 3.75 log10 IU/mL; HCV RNA (log10 IU/mL), mean (HCV GT2 or GT3; D3): 2.62 log10 IU/mL; HCV RNA (log10 IU/mL), mean (HCV GT2 or GT3; T = 0 (initial screening values)): 6.08 log10 IU/mL; HCV RNA (log10 IU/mL), mean (HCV GT2 or GT3; W1): 1.56 log10 IU/mL; HCV RNA (log10 IU/mL), mean (HCV GT2 or GT3; W2): 1.22 log10 IU/mL; HCV RNA (log10 IU/mL), mean (HCV GT2 or GT3; W3): 1.15 log10 IU/mL; HCV RNA (log10 IU/mL), mean (HCV GT2 or GT3; W4): 1.15 log10 IU/mL; HCV RNA (log10 IU/mL), mean (HCV GT2 or GT3; W5): 1.15 log10 IU/mL; HCV RNA (log10 IU/mL), mean (HCV GT2 or GT3; W6): 1.15 log10 IU/mL; HCV RNA (log10 IU/mL), mean (HCV GT2 or GT3; W7): 1.15 log10 IU/mL; HCV RNA (log10 IU/mL), mean (HCV GT2 or GT3; W8): 1.15 log10 IU/mL; HCV RNA (log10 IU/mL), mean (HCV GT2 or GT3; W9): 1.15 log10 IU/mL; HCV RNA (log10 IU/mL), mean (HCV GT2 or GT3; W10): 1.15 log10 IU/mL; HCV RNA (log10 IU/mL), mean (HCV GT2 or GT3; W11): 1.15 log10 IU/mL; HCV RNA (log10 IU/mL), mean (HCV GT2 or GT3; W12 (end of treatment)): 1.15 log10 IU/mL; HCV RNA (log10 IU/mL), mean (HCV GT2 or GT3; W14 (after 12-week treatment)): 1.66 log10 IU/mL; HCV RNA (log10 IU/mL), mean (HCV GT2 or GT3; W16 (after 12-week treatment)): 2.95 log10 IU/mL; HCV RNA (log10 IU/mL), mean (HCV GT2 or GT3; W20 (after 12-week treatment)): 3.12 log10 IU/mL; HCV RNA (log10 IU/mL), mean (HCV GT2 or GT3; W24 (12 weeks after treatment)): 3.17 log10 IU/mL; HCV RNA below LOD, % (HCV GT2 or GT3; SVR-4): (60) %; HCV RNA below LOD, % (HCV GT2 or GT3; SVR-12): (60) %; HCV RNA below LOD, % (HCV GT2 or GT3; Time 1 wk): (50) %; HCV RNA below LOD, % (HCV GT2 or GT3; Time 2 wks): (80) %; HCV RNA below LOD, % (HCV GT2 or GT3; Time 3 wks): (100) %; HCV RNA below LOD, % (HCV GT2 or GT3; Time 4 wks): (100) %; HCV RNA below LOD, % (HCV GT2 or GT3; Time 8 wks): (100) %; HCV RNA below LOD, % (HCV GT2 or GT3; Time 12 wks): (100) %; % < LOD (HCV GT2 or GT3; SVR-4): 60%; n/N < LOD (HCV GT2 or GT3; SVR-4): 6/10; % < LOD (HCV GT2 or GT3; SVR-8): 60%; n/N < LOD (HCV GT2 or GT3; SVR-8): 6/10; % < LOD (HCV GT2 or GT3; SVR-12): 60%; n/N < LOD (HCV GT2 or GT3; SVR-12): 6/10; % < LOD (HCV GT2 or GT3; SVR-24): 60%; n/N < LOD (HCV GT2 or GT3; SVR-24): 6/10; % < LOD (HCV GT2 or GT3; Time 0 wks): 0%; % < LOD (HCV GT2 or GT3; Time 4 wks): 100%; n/N < LOD (HCV GT2 or GT3; Time 4 wks): 10/10; % < LOD (HCV GT2 or GT3; Time 8 wks): 100%; n/N < LOD (HCV GT2 or GT3; Time 8 wks): 10/10; % < LOD (HCV GT2 or GT3; Time 12 wks): 100%; n/N < LOD (HCV GT2 or GT3; Time 12 wks): 10/10; SVR-24 (HCV GT2 or GT3; treatment-naive GT2/GT3, 12 weeks GS-7977 400 mg QD): 60%; SVR-12 (HCV GT2 or GT3; treatment-naive GT2/GT3 HCV patients, GS-7977 400 mg QD): 60%; EC50 ([2]; Hepatitis C virus, read-out: EC50 S282T): 253 nM; Fold Change ([2]; genotype 1a, S282T from corresponding wild-type): 10.1; Abdominl Pain: n [3]: 0; Alopecia: n [3]: 0; Anemia: n [3]: 0; Arthralgia: n [3]: 0; Axillary Pain: % [3]: (20) %; Axillary Pain: n [3]: 2; Back Pain: % [3]: (10) %; Back Pain: n [3]: 1; Blood and Lymphatic System Disorders: n [3]: 0; Chills: n [3]: 0; Decreased Appetite: n [3]: 0; Diarrhoea: n [3]: 0; Dizziness Postural: n [3]: 0; Dizziness: % [3]: (20) %; Dizziness: n [3]: 2; Dry Skin: n [3]: 0; Dyspnoea: n [3]: 0; Fatigue: % [3]: (30) %; Fatigue: n [3]: 3; Flatulence: n [3]: 0; Gastrointestinal Disorders: % [3]: (80) %; Gastrointestinal Disorders: n [3]: 8; General Disorders and Administration Site Conditions: % [3]: (80) %; General Disorders and Administration Site Conditions: n [3]: 8; Headache: % [3]: (80) %; Headache: n [3]: 8; Infections and Infestations: % [3]: (50) %; Infections and Infestations: n [3]: 5; Injection Site Erythema: n [3]: 0; Insomnia: % [3]: (60) %; Insomnia: n [3]: 6; Irritability: % [3]: (10) %; Irritability: n [3]: 1; Metabolism and Nutrition Disorders: n [3]: 0; Musculoskeletal and Connective Tissue Disorders: % [3]: (20) %; Musculoskeletal and Connective Tissue Disorders: n [3]: 2; Myalgia: % [3]: (10) %; Myalgia: n [3]: 1; Nausea: % [3]: (30) %; Nausea: n [3]: 3; Nervous System Disorders: % [3]: (90) %; Nervous System Disorders: n [3]: 9; Oropharyngeal Pain: % [3]: (20) %; Oropharyngeal Pain: n [3]: 2; Pain: n [3]: 0; Pruritus: n [3]: 0; Psychiatric Disorders: % [3]: (60) %; Psychiatric Disorders: n [3]: 6; Pyrexia: n [3]: 0; Rash: % [3]: (10) %; Rash: n [3]: 1; Respiratory, Thoracic and Mediastinal Disorders: % [3]: (30) %; Respiratory, Thoracic and Mediastinal Disorders: n [3]: 3; Skin and Subcutaneous Tissue Disorders: % [3]: (30) %; Skin and Subcutaneous Tissue Disorders: n [3]: 3; Upper Respiratory Tract Infection: % [3]: (20) %; Upper Respiratory Tract Infection: n [3]: 2; ≧1 AE: % [3]: (100) %; ≧1 AE: n [3]: 10
